Measurements as given in publication PMC11207040, “Synthesis and Biological Studies of New Temporin A Analogs Containing Unnatural Amino Acids in Position 7” (Pharmaceutics, 2024).
Converted amounts (≈) assume the structure as drawn. Non-standard residues stand in square brackets, D forms with d. Residues, ends and D or L forms follow the SMILES beside them. Dab = NCC[C@H](N)C(=O)O

Columns and labels:
[1] = system: MCF-12F cells; experiment: MTT antiproliferative assay, MCF-12F; format: cell-based, human; conditions: 72 h, non-tumorigenic cell line, read-out: Mean IC50 ± SD, MCF-12F
Procedure: (§1) The cell lines BALB 3T3 (mouse embryonic fibroblasts) and MCF-12F (human breast epithelial cells) were used as models for healthy tissue. The MCF-7 and MDA-MB-231 cell lines were used as in vitro models for luminal A- and basal B-type breast cancer, respectively. Cell lines were obtained from the American Type Cultures Collection (ATCC, Manassas, VA, USA). Cells were cultured in Dulbecco modified Eagle’s medium (DMEM) supplemented with 10% fetal bovine serum (FBS), 100 U/mL penicillin, and 0.1 mg/mL streptomycin (Sigma-Aldrich, Schnelldorf, Germany) in an incubator at 37 °C, 5% CO2 and 95% humidity. Plastic flasks 75 cm^2 (Biologix, Lenexa, KS, USA) were used to grow the cells.
(§2) The antiproliferative activity testing was performed on cell cultures using the MTT-dye reduction assay. This assay is based on the metabolism of MTT to insoluble formazan by mitochondrial reductases. The formazan concentration can be determined spectrophotometrically. The measured absorption is an indicator of cell viability. Cell lines (MCF-12F, MCF-7 and MDA-MB-231) were used in the experiments. Cells were plated at a density of 1 × 10^3 cells/100 µL in each well of 96-well microplates and allowed to adhere for 24 h before treatment with test compounds. A concentration range from 4 to 1000 μM was applied for 72 h. The formazan absorption was registered using a microplate reader at λ = 540 nm. Antiproliferative activities were expressed as IC50 values (concentrations required for 50% inhibition of cell growth).

[2] = system: MDA-MB-231 cells; experiment: MTT antiproliferative assay, MDA-MB-231; format: cell-based, human; conditions: for IC50: MTT, 72 h, read-out: Mean IC50 ± SD, MDA-MB-231; for SI (Selectivity Index), MDA-MB-231: SI = IC50 MCF-12F/IC50 tumor cells
Procedure: as §1, §2

[3] = system: Arthrobacter oxydans NBIMCC 9333; format: cell-based; conditions: broth dilution, 0 to 320 µg/mL, 24 h; NI = no inhibition monitored
Procedure: (§3) The parent peptide Temporin A and the novel analogs were subjected to tests against model strains Escherichia coli NBIMCC 8785, Bacillus subtilis NBIMCC 3562, Arthrobacter oxydans NBIMCC 9333, Pseudomonas aeruginosa NBIMCC 3700, and Candida albicans NBIMCC 74, for the assessment of their antimicrobial activity. The strains were acquired from the National Bank for Industrial Microorganisms and Cell Cultures (NBIMCC, Bulgaria). The strain E. coli 8785 was cultured in Luria-Bertani broth (LB, HiMedia, Mumbai, India); B. subtilis 3562—in nutrient broth (NB, HiMedia, Mumbai, India); A. oxydans 9333; P. aeruginosa 3700—in meat peptone agar (MPA) medium; and C. albicans 74—in yeast mold (YM) medium. An incubator shaker ES-20/60 (Biosan, Latvia) was used for the cultivation and was set to 30 °C for B. subtilis 3562, A. oxydans 9333, and C. albicans 74; and 37 °C for E. coli 8785 and P. aeruginosa 3700, with a 24 h shaking period at 120 rpm. The microbial cultures were then adjusted to a turbidity of 0.5 McFarland using a Grant-bio DEN-1B densitometer (Grant Instruments, Royston, UK) for further use.
(§4) The minimal inhibitory concentration (MIC) of the peptides was determined using the broth dilution method. Stock solutions of the peptides with a concentration of 10 mg/mL in 10% EtOH/H2O were prepared. Suspensions of the bacteria in the corresponding media were added to 96-well U-shaped bottom polystyrene plates (Deltalab S.L., Spain) and exposed to the peptide in the concentration range from 0 to 320 µg/mL, and a 10% EtOH/H2O control, diluted using the same scheme as the peptides, was also used. The plates were then incubated under aerobic conditions at the corresponding temperature for 24 h. The MIC (µg/mL) was assumed as the lowest concentration of the antimicrobial, where there was visible inhibition of the strain. The absorbance was measured at 630 nm (Microplate reader PKL PPC 142, Paramedical srl, Salerno, Italy). To determine the minimal bactericidal concentration (MBC) and minimal fungicidal concentration (MFC), 10 μL from concentrations greater than or equal to the MIC was placed on the corresponding solid nutrient medium. The Petri dishes were then incubated at 30 or 37 °C for 24 h. All experiments were conducted in a triplicate.

[4] = system: Bacillus subtilis NBIMCC 3562; format: cell-based; conditions: broth dilution, 0 to 320 µg/mL, 24 h; NI = no inhibition monitored
Procedure: as §3, §4

[5] = system: Escherichia coli NBIMCC 8785; format: cell-based; conditions: broth dilution, 0 to 320 µg/mL, 24 h; NI = no inhibition monitored
Procedure: as §3, §4

[6] = system: Pseudomonas aeruginosa NBIMCC 3700; format: cell-based; conditions: broth dilution, 0 to 320 µg/mL, 24 h; NI = no inhibition monitored
Procedure: as §3, §4

[7] = system: Candida albicans NBIMCC 74; format: cell-based; conditions: broth dilution, 0 to 320 µg/mL, 24 h; NI = no inhibition monitored
Procedure: as §3, §4

With `CC[C@H](C)[C@H](NC(=O)CNC(=O)[C@H](CO)NC(=O)[C@H](CC(C)C)NC(=O)[C@@H](NC(=O)[C@H](CCN)NC(=O)CNC(=O)[C@@H](NC(=O)[C@H](CC(C)C)NC(=O)[C@@H]1CCCN1C(=O)[C@H](CC(C)C)NC(=O)[C@@H](N)Cc1ccccc1)[C@@H](C)CC)C(C)C)C(=O)N[C@@H](CC(C)C)C(N)=O` [DTDab, FLPLIG-Dab-VLSGIL-NH2] (H-FLPLIG[Dab]VLSGIL-NH2; N-terminus assumed) the IC50 [1] was 280 ± 13.6 µM, the IC50 [2] was 174.9 ± 1.35 µM and the “SI (Selectivity Index), MDA-MB-231” value [2] was 1.60. For the same compound, the “MIC, A. oxydans 9333” value [3] was 320 µg/mL (≈ 239 µM), the “MIC, B. subtilis 3562” value [4] was 160 µg/mL (≈ 119 µM) and the “MIC, E. coli 8785” value [5] was 320 µg/mL (≈ 239 µM). The “MIC, P. aeruginosa 3700” value [6] was 320 µg/mL (≈ 239 µM).

In the case of `CC[C@H](C)[C@H](NC(=O)CNC(=O)[C@H](CO)NC(=O)[C@H](CC(C)C)NC(=O)[C@@H](NC(=O)[C@H](CCCCN)NC(=O)CNC(=O)[C@@H](NC(=O)[C@H](CC(C)C)NC(=O)[C@@H]1CCCN1C(=O)[C@H](CC(C)C)NC(=O)[C@@H](N)Cc1ccccc1)[C@@H](C)CC)C(C)C)C(=O)N[C@@H](CC(C)C)C(N)=O` [DTF, FLPLIG-K-VLSGIL-NH2, reference compound] (H-FLPLIGKVLSGIL-NH2), the IC50 [1] is reported as 100 ± 3.3 µM, the IC50 [2] is reported as 77 ± 2.92 µM and the “SI (Selectivity Index), MDA-MB-231” value [2] is reported as 1.30. For the same compound, the “MIC, A. oxydans 9333” value [3] was 80 µg/mL (≈ 58.4 µM), the “MIC, B. subtilis 3562” value [4] was 80 µg/mL (≈ 58.4 µM) and the “MIC, C. albicans 74” value [7] was 320 µg/mL (≈ 234 µM). For the same compound, the “MIC, E. coli 8785” value [5] was 320 µg/mL (≈ 234 µM) and the “MIC, P. aeruginosa 3700” value [6] was 160 µg/mL (≈ 117 µM).
